Data on four compounds can be found in paper PMC12649483, “Novel Chalcone Derivatives as Anti-Leishmania infantum Agents with Potential Synergistic Activity and In Silico Insights” (Antibiotics, 2025).

Entries after “also recorded” stand apart in the source; their conditions may differ.

What is called IC50 is the concentration needed to halve the response being measured. Low readings indicate greater potency, high ones weaker potency. As usually defined, the CC50 is the concentration that lowers cell viability or growth by half. A higher CC50 goes with better tolerance by the cells. As usually defined, the viability is the share of living cells, or the viability signal relative to a control.

Data set [1] relates to L. infantum promastigotes. The data set can be described thus: In vitro leishmanicidal activity (MTT) in promastigote forms. Format: cell-based, Leishmania infantum. Conditions: for IC50: 72 h treatment, MTT. As for the experimental part:
(§1) Promastigote forms of L. infantum [IOC/L0579 (MHOM/BR/1974/PP75)] were cultured in Schneider’s medium (pH 7.0), supplemented with 20% fetal bovine serum (FBS), 1% human male urine, and 1% antibiotic solution (penicillin 200 U/mL and streptomycin 0.1 mg/mL), and maintained at 26 ± 1 °C (B.O.D SL 200—SOLAB, Piracicaba, SP, BR). The generation of extracellular axenic amastigote forms of L. infantum was based on protocols previously described by Debrabant et al. (2004), with modifications that included the use of Schneider’s medium adjusted to pH 5.5 and incubation at 37 °C (CO2 Series 3517-2, Cornelius, OR, USA).
The antileishmanial activity of compounds against metacyclic promastigote populations was assessed using the MTT (ACROS, Livingston, NJ, USA) assay for cell viability analysis. During testing, L. infantum (IOC/L0579) cultures were maintained in vitro in supplemented Schneider’s (Sigma-Aldrich, St. Louis, MO, USA) medium (pH 7.0) at 26 ± 1 °C in a biological oxygen demand (BOD) incubator.
(§2) In 96-well plates, initial screening was performed with serial dilutions (400 to 3.12 μM) of compounds 3a–c and 4a–c in duplicate. […] AmB was used as a positive control due to its established leishmanicidal activity, tested at concentrations ranging from 10 to 0.078 μM. Following 72 h-treatment of promastigotes and 24 h-treatment of amastigotes (accounting for the stationary phase culture characteristics), MTT was added for 4 h, followed by overnight incubation with sodium dodecyl sulfate (SDS) for spectrophotometric (Biotek model ELx800, Winooski, VT, USA) reading at 540 nm.

Data set [2] in a line: Cytotoxicity (MTT) in peripheral blood mononuclear cells. It counts as cell-based, human. To be noted: human, peripheral blood mononuclear cells (PBMCs), 24 h; for CC50 at 24 h: PBMCs, MTT; for viability at 24 h, 250 µM: at 250 μM; for viability at 24 h, 500 µM: at 500 μM. The protocol: (§3) For the PBMCs assay, blood samples from three healthy volunteers were processed using Ficoll density gradient centrifugation (980× g) for 20 min at 25 °C. The PBMCs layer was collected, washed with sterile 1× PBS (300× g, 10 min, 4 °C), and resuspended in RPMI medium (Sigma-Aldrich) supplemented with 10% FBS and 1% antibiotic. Adjusted PBMCs were plated in 96-well plates and incubated with serial dilutions of the compounds (1000 to 7.8 µM) and AmB (100 to 0.78 µM) for 24 h (37 °C, 5% CO2). MTT was then added for 4 h, followed by centrifugation (300× g, 10 min) at 4 °C, supernatant removal, and DMSO addition for spectrophotometric reading at 540 nm.

Data set [3] relates to human erythrocytes. The data set can be described thus: Hemolytic activity in human erythrocytes. Conditions: for hemolytic activity (in words): tested concentrations 100–0.78 µM. Format: cell-based. As for the experimental part: The hemolytic activity of the compounds 4a–b was evaluated using an adaptation of the method described by Van de Ven (2012). Blood samples were adjusted to a 5% erythrocyte concentration, taking into account the hematocrit differences between males (40–50% ≈ 45%) and females (35–45% ≈ 40%). Compounds were added to 96-well plates at serial dilutions (100 to 0.78 µM), while AmB was tested at concentrations ranging from 400 to 3.12 µM as a reference. After 1 h of incubation at 37 °C in a 5% CO2 incubator, 100 µL of phosphate-buffered saline (PBS) was added to each well. Plates were centrifuged (112× g, 10 min, 25 °C), and supernatants were transferred to a mirrored 96-well plate. Hemoglobin release, reflecting erythrocyte lysis, was quantified by measuring absorbance at 540 nm. The assay was performed in three independent experiments, with results expressed as mean hemolytic concentration (HC50). Ultrapure water (Direct-Q UV, Guyancourt, France) served as the positive control (100% hemolysis).

For data set [4], the system named is L. infantum axenic amastigotes. The data set is described as follows: In vitro leishmanicidal activity (MTT) in axenic amastigote forms. It counts as cell-based, Leishmania infantum. To be noted: for IC50: axenic amastigotes, 24 h treatment, MTT. The protocol:
as §1, §2

Data set [5] relates to human PBMCs. The data set can be described thus: Cytotoxicity (MTT) in peripheral blood mononuclear cells. Format: cell-based. The protocol: as §3
Data set [6] concerns L. infantum axenic amastigotes. The data set can be described thus: Synergistic activity of 4b with AmB (Chou-Talalay) against axenic amastigotes. Format: cell-based, Leishmania infantum. Conditions: of each drug within the 1:5 AmB:4b combination. As for the experimental part: The nature of the drug interaction (synergistic, additive, or antagonistic) was evaluated using the Chou–Talalay method implemented in CompuSyn software (ComboSyn Incorporated, version 1.0.1, 2006–2023). This approach calculates the Combination Index (CI) based on dose–response data fitted to the median-effect equation, with parameters including Dm (median-effect dose), m (slope of the dose–effect curve), and r (linear correlation coefficient). To characterize the interaction at different effect levels, CI values were determined for the following effective doses: ED50, ED75, and ED90, corresponding to 50%, 75%, and 90% inhibition of cell viability, respectively. Interactions were interpreted as synergistic when CI < 1, additive when CI = 1, and antagonistic when CI > 1. Additionally, the dose reduction index (DRI) was calculated to estimate the amount of dose reduction that could be achieved for each drug in combination while maintaining the same level of efficacy; […]

[7] abbreviates: at the highest concentration, 72 h.
Where [8] appears, read: at the lowest doses / lower concentrations, 72 h.

Consider `Cc1ccc(C(=O)/C=C/c2ccc(OCC(=O)NC3CCCCC3)cc2)cc1` [Compound 4a, (E)-N-Cyclohexyl-2-(4-(3-oxo-3-p-tolylprop-1-enyl)phenoxy)acetamide], for which the IC50 stood at 12.9 µM in data set [1] (Leishmania infantum) and 19.7 µM in data set [4] (Leishmania infantum). The results for the promastigote viability in data set [1] (setting [7]) and in data set [1] (setting [8]) were 20.77% and 100%, respectively. Further, the CC50 at 24 h in data set [2] was found to be 157 µM. Moreover, the viability at 24 h, 125 µM in data set [2] (at 125 μM, read-out: PBMC viability) was 61.2%. Moreover, the viability at 24 h, 250 µM in data set [2] (read-out: PBMC viability) worked out at 33%. For the same compound, the viability at 24 h, 500 µM in data set [2] (read-out: PBMC viability) came out at 33.4%. In addition, in data set [3], the “hemolytic activity (in words)” value was “no hemolytic activity”. In data set [4] (Leishmania infantum, at 12.5 µM, 24 h), this compound displayed a viability at 12.5 µM of 80.2%. In data set [4] (Leishmania infantum, at 25 µM, 24 h), this compound displayed a viability at 25 µM of 30.8%. In addition, the viability at 50 µM in data set [4] (Leishmania infantum, at 50 µM, 24 h) is 23.5%.
`COc1ccc(C(=O)/C=C/c2ccc(OCC(=O)NC3CCCCC3)cc2)cc1` [Compound 4b, (E)-N-Cyclohexyl-2-(4-(3-(4-methoxyphenyl)-3-oxoprop-1-enyl)phenoxy)acetamide]: the IC50 in data set [1] (Leishmania infantum) came to 7.02 µM; in data set [4] (Leishmania infantum), 3.4 µM. Further, the viability at 3.12 µM in data set [1] (Leishmania infantum, at 3.12 µM, 72 h) worked out at 79.3%; in data set [4] (Leishmania infantum, at 3.12 µM, 24 h), 60.8%. In addition, the viability at 6.25 µM in data set [1] (Leishmania infantum, at 6.25 µM, 72 h) amounted to 34.2%; in data set [4] (Leishmania infantum, at 6.25 µM, 24 h) it was 9.12%. In data set [1] (Leishmania infantum, at 12.5 µM, 72 h), the viability at 12.5 µM came to 24.3%. In data set [2], the 50% cytotoxic concentration (CC50) at 24 h turned out to be 505 µM. The viability at 24 h, 250 µM in data set [2] (read-out: PBMC viability) came out at 65.1%. Besides, in data set [2] (read-out: PBMC viability), the viability at 24 h, 500 µM was 55.2%. Moreover, the viability at 24 h, 1000 µM in data set [2] (at 1000 μM, read-out: PBMC viability) came to 31.8%. In addition, the “PBMC cytotoxicity versus negative controls (in words)” value in data set [5] (25–100 μM) is on record as “negligible cytotoxicity”. Moreover, in data set [6], the “dose reduction index (DRI) at IC50” value came to 1.28. In data set [3], the “hemolytic activity (in words)” value is recorded as “no hemolytic activity”. In data set [4] (Leishmania infantum, at 1.56 µM, 24 h), the viability at 1.56 µM was 85.5%.
The compound `O=C(COc1ccc(/C=C/C(=O)c2ccc(Br)cc2)cc1)NC1CCCCC1` [Compound 4c, (E)-2-(4-(3-(4-Bromophenyl)-3-oxoprop-1-enyl)phenoxy)-N-cyclohexylacetamide] returned an IC50 in data set [1] (Leishmania infantum) of 45.8 µM. In addition, the promastigote viability in data set [1] (setting [7]) amounted to 21.93%; in data set [1] (setting [8]), 100%. The “activity against amastigotes (in words)” value in data set [4] (24 h) is reported as “no detectable activity; also recorded: no inhibitory effect”.
Take `C[C@@H]1[C@H](O)[C@@H](C)/C=C/C=C/C=C/C=C/C=C/C=C/C=C/[C@H](O[C@@H]2O[C@H](C)[C@@H](O)[C@H](N)[C@@H]2O)C[C@@H]2O[C@](O)(C[C@@H](O)C[C@@H](O)[C@H](O)CC[C@@H](O)C[C@@H](O)CC(=O)O[C@H]1C)C[C@H](O)[C@H]2C(=O)O` [AmB, Amphotericin B, reference compound]: the IC50 in data set [1] (Leishmania infantum) amounted to 0.87 µM; in data set [4] (Leishmania infantum) it was 0.89 µM. Also, in data set [2], it took 29.9 µM to reach half-maximal cytotoxicity (CC50 at 24 h). The viability at 24 h, 25 µM in data set [2] (at 25 μM, read-out: PBMC viability) turned out to be 61.9%. For the same compound, the viability at 24 h, 50 µM in data set [2] (at 50 μM, read-out: PBMC viability) stood at 40.8%. Moreover, the viability at 24 h, 100 µM in data set [2] (at 100 μM, read-out: PBMC viability) was found to be 30.4%. The midpoint of cytotoxicity in data set [5] (PBMCs, 24 h, MTT), the CC50, lay at 29.9 µM. Besides, in data set [6], the “dose reduction index (DRI) at IC50” value came to 2.87. Also, the “50% hemolytic concentration (HC50)” value in data set [3] (5% erythrocytes, 1 h, 37 °C) came out at 193.4 µM.
